Results published in US11547735B2, “Composition for ameliorating psoriasis symptoms containing extract of Thalictrum squarrosum steph” (KOREA INSTITUTE OF SCIENCE AND TECHNOLOGY, priority 2020, dated 2023).

Assays:
[1] = tested on: filaggrin, loricrin, keratin 1 and keratin 14; assay: Biomarkers for epithelial tissue damage in back skin by immunofluorescence; type: in vivo, Balb/c mice; conditions: after treatment for a week, versus IMQ group
Text: (§1) 6-week-old male Balb/c mice (Kangwon Life Science, Korea) were purchased and acclimated for a week, and psoriasis was induced using 5% imiquimod (Donga ST, Korea). FIG. 1 is a schematic experimental scheme of an animal model. Anti-psoriatic efficacy was investigated using a total of 20 animal models including 5 animals per experimental group.
(§2) In order to determine the effect of the extract of Thalictrum squarrosum steph on psoriasis caused by imiquimod, the experimental animals of Section 2-1 were used. The following four experimental groups were constructed and five animals were randomly assigned to each group:
(§3) The experiment was conducted by inducing psoriasis with IMQ cream and then performing daily application in the amount shown in FIG. 2 to the experimental group and the DEX group. FIG. 3 is an image showing the treatment group for 7 days compared to the psoriasis-induced model as the animal experimental model.
After treatment for a week, back skin tissue was removed from each animal and a paraffin block was then prepared. A paraffin block was cut to 5 μm to prepare a slide sample, and then the change in biomarkers for epithelial tissue damage due to psoriasis was measured through immunofluorescence.

[2] = tested on: psoriasis caused by imiquimod; assay: Epithelial thickness of back skin by H&E staining in imiquimod psoriasis model; type: in vivo, Balb/c mice; conditions: after treatment for a week, compared to the IMQ group
Text: as §1, §2, §3
After treatment for a week, the back skin tissue was removed from each animal, and then a paraffin block was prepared. The paraffin block was cut to 5 μm to prepare a slide sample, and then the change in the thickness of the skin tissue was measured through H&E staining.

With `C[C@@H]1C[C@H]2[C@@H]3CCC4=CC(=O)C=C[C@]4(C)[C@@]3(F)[C@@H](O)C[C@]2(C)[C@@]1(O)C(=O)CO` [DEX, dexamethasone] the “expression level of filaggrin” value [1] was “increased”, the “expression level of keratin 1” value [1] was “increased” and the “expression level of keratin 14” value [1] was “increased”. The “expression level of loricrin” value [1] was “increased” and the “thickness of the epithelial layer” value [2] was “decreased thickness”.
